Measured values from PMC6958387, “Biological Evaluation of Arylsemicarbazone Derivatives as Potential Anticancer Agents” (Pharmaceuticals, 2019).

Assays:
MOLT-4 = assay: MTT cytotoxicity, 72 h; format: cell-based, human
Method: (§1) The cytotoxicity assessment was performed against three human cancer cell lines in suspension (K562, HL-60 and MOLT-4) and four adhered (HEp-2, NCI-H292, HT-29 and MCF-7).
(§2) The cells were obtained from the Cell Bank of Rio de Janeiro and maintained in the Laboratory of Cell Culture of the Department of Antibiotics of the Federal University of Pernambuco. The lines K562 (myeloblastic leukaemia), HL-60 (promyelocytic leukemia) and MOLT-4 (lymphoblastic leukemia) were cultured in RPMI 1640 medium and the lines HEp-2 (larynx carcinoma), NCI-H292 (lung carcinoma), HT-29 (colon adenocarcinoma) and MCF-7 (breast adenocarcinoma) were cultured in DMEM medium, supplemented with 10% fetal bovine serum, 2 mM glutamine, 100 U/mL penicillin and 100 μg/mL streptomycin (Gibco™ Life Technologies), at 37 °C and 5% CO2.
(§3) The evaluation of the cytotoxicity of the compounds was performed by the method of 3-(4,5-dimethyl-2-thiazolyl)-2,5-diphenyl-2H-tetrazolium bromide (MTT) (Sigma Aldrich Co., St. Louis, MO, USA). To perform the assay the cells were seeded in 96-well plates at the following concentrations: HL-60 and K562 (0.3 × 10^6 cells/mL); MOLT-4 and PBMC (10^6 cells/mL); NCI-H292, HT-29, HEp-2 e MCF-7 (10^5 cells/mL). Briefly, the compounds previously dissolved in DMSO (dimethylsulfoxide, Vetec, São Paulo, Brazil), were diluted in medium and added to each well at the desired concentrations. For the calculation of the concentration that inhibits 50% of cell growth (IC50) the compounds were serially diluted to obtain the final concentrations between 0.19–25 μg/mL. Doxorubicin was used as the standard in the concentration range between (0.078–10 μg/mL). After 72 h of contact of the cells with the compounds, it was added to each well 25 μL of MTT solution (5 mg/mL). Plates were left for another 3 h in incubator at 37 °C and at the end of that period the supernatant was aspirated. To perform the reading, 100 μL of DMSO was added in each well for the dissolution of the formazan crystals. The amount of formazan was measured by reading the plate at 560 nm absorbance. The IC50 was calculated from the nonlinear regression in the Prisma 7.0 software (GraphPad, San Diego, CA, USA). Each sample was tested in triplicate in three independent experiments.

HEp-2 = assay: MTT cytotoxicity, 72 h; format: cell-based, human
Method: as §1, §2, §3

NCI-H292 = assay: MTT cytotoxicity, 72 h; format: cell-based, human
Method: as §1, §2, §3

MCF-7 = assay: MTT cytotoxicity, 72 h; format: cell-based, human
Method: as §1, §2, §3

HT-29 = assay: MTT cytotoxicity, 72 h; format: cell-based, human
Method: as §1, §2, §3

HL-60 = assay: MTT cytotoxicity, 72 h; format: cell-based, human; conditions: MTT, 72 h of incubation
Method: as §1, §2, §3

K562 = assay: MTT cytotoxicity, 72 h; format: cell-based, human
Method: as §1, §2, §3

[1] = test system: Peripheral Blood Mononuclear Cells (PBMCs); assay: MTT cytotoxicity in normal cells, 72 h; format: cell-based, human; conditions: 72 h of incubation
Method: In order to evaluate the cytotoxic potential in normal cells, all the derivatives were tested against Peripheral Blood Mononuclear Cells (PBMCs) and the most promising compounds were again compounds 3c and 4a, which offered more selectivity against the cancer cells.
Mononuclear cells were obtained from the peripheral blood of healthy volunteers by heparin tube collection and isolated by Ficoll-Histopaque gradient centrifugation. After centrifugation, the cells were harvested, washed and resuspended in RPMI 1640 medium supplemented with 20% fetal bovine serum, 2 mM glutamine, 100 U/mL penicillin and 100 μg/mL streptomycin (Gibco™ Life Technologies, Waltham, MA, USA). The phytohemagglutinin mitogen 2% was also added into the culture medium. After that, using the neubauer chamber, the cells were counted and plated in a 96-well plate at a concentration of 10^6 cells/mL and then were maintained for overnight under incubation at 37 °C and 5% CO2 [65].
as §3

GSK3 α/β = assay: Kinase inhibition assay (ADP-Glo); format: biochemical, Sus scrofa domesticus; conditions: 10 µM ATP
Method: SscGSK-3α/β (Sus scrofa domesticus, glycogen synthase kinase-3, affinity purified from porcine brain) was assayed in buffer A with 0.010 µg/µL of GS-1 peptide, a GSK-3-selective substrate ([…]pEDEEE, “Sp” stands for phosphorylated serine).

CLK1 = target: T1, CLK1 (Mus musculus, UniProt P22518); assay: Kinase inhibition assay (ADP-Glo); format: biochemical; conditions: 10 µM ATP
T1 construct: made in house; host or cells: bacteria
Method: MmCLK1 (from Mus musculus, recombinant, expressed in bacteria) was assayed in buffer A with 0.027μg/µL of the following peptide: GRSRSRSRSRSR as substrate.

CDK2/CyclinA = CDK2/CyclinA (Homo sapiens, UniProt P24941); assay: Kinase inhibition assay (ADP-Glo); format: biochemical; conditions: 10 µM ATP
Method: HsCDK2/CyclinA (human, cyclin-dependent kinase-2, kindly provided by Dr. A. Echalier-Glazer, Leicester, UK) was assayed in buffer A with 0.8 µg/µL of histone H1 as substrate.

CK1δ/ε = assay: Kinase inhibition assay (ADP-Glo); format: biochemical, Sus scrofa domesticus; conditions: 10 µM ATP
Method: SscCK1δ/ε (Sus scrofa domesticus, casein kinase 1δ/ε, affinity purified from porcine brain) was assayed in buffer A, with 0.022 μg/μL of the following peptide: RRKHAAIGSpAYSITA (“Sp” stands for phosphorylated serine) as CK1-specific substrate.

HASPIN = target: T2, HASPIN (Homo sapiens, UniProt Q8TF76); assay: Kinase inhibition assay (ADP-Glo); format: biochemical; conditions: 10 µM ATP
T2 construct: kinase domain, amino acids 470 to 798; made in house; host or cells: bacteria
T2 sequence (Q8TF76 470-798): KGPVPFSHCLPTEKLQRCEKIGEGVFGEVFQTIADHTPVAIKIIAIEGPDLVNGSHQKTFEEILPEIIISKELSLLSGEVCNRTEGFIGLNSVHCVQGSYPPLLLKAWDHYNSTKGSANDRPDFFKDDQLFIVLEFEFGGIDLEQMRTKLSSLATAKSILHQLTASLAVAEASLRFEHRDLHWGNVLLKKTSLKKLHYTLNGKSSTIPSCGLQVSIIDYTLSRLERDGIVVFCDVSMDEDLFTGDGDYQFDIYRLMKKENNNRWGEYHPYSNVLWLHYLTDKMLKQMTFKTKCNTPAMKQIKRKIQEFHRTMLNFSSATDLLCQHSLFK
Method: HsHASPIN (human, kinase domain, amino acids 470 to 798, recombinant, expressed in bacteria) was assayed in buffer A with 0.007 µg/µL of Histone H3 (1-21) peptide ([…]) as substrate;

CDK5/p25 = target: T3, CDK5/p25 (Homo sapiens, UniProt Q00535); assay: Kinase inhibition assay (ADP-Glo); format: biochemical; conditions: 10 µM ATP
T3 construct: made in house; host or cells: bacteria
Method: HsCDK5/p25 (human, recombinant, expressed in bacteria) was assayed in buffer A, with 0.8 µg/µL of histone H1 as substrate.

CDK9/CyclinT = CDK9/CyclinT (Homo sapiens, UniProt P50750); assay: Kinase inhibition assay (ADP-Glo)
DYRK1A = target: T4, DYRK1A (Rattus norvegicus, UniProt Q63470); assay: Kinase inhibition assay (ADP-Glo); format: biochemical; conditions: 10 µM ATP
T4 construct: amino acids 1 to 499 including the kinase domain; made in house; host or cells: bacteria
Method: RnDYRK1A (Rattus norvegicus, amino acids 1 to 499 including the kinase domain, recombinant, expressed in bacteria, DNA vector kindly provided by Dr. W. Becker, Aachen, Germany) was assayed in buffer A with 0.033 μg/µL of the following peptide: KKISGRLSPIMTEQ as substrate.

PIM1 = target: T5, PIM1 (Homo sapiens, UniProt P11309); assay: Kinase inhibition assay (ADP-Glo); format: biochemical; conditions: 10 µM ATP
T5 construct: made in house; host or cells: bacteria
Method: HsPIM1 (human proto-oncogene, recombinant, expressed in bacteria) was assayed in buffer B with 0.8 µg/µL of histone H1 (Sigma #H5505) as substrate.

AURKB = target: T6, AURKB (Homo sapiens, UniProt Q96GD4); assay: Kinase inhibition assay (ADP-Glo); format: biochemical; conditions: 10 µM ATP
T6 construct: purchased SignalChem A31-10G; host or cells: Sf9 insect cells (baculovirus)

[2] = Homo sapiens, MOLT-4, 72 h of incubation
[3] = Homo sapiens, HEp-2, 72 h of incubation
[4] = Homo sapiens, NCI-H292, 72 h of incubation
[5] = Homo sapiens, MCF7, 72 h of incubation
[6] = Homo sapiens, HT-29, 72 h of incubation
[7] = Homo sapiens, K562, 72 h of incubation

T1 sequence (P22518 whole entry): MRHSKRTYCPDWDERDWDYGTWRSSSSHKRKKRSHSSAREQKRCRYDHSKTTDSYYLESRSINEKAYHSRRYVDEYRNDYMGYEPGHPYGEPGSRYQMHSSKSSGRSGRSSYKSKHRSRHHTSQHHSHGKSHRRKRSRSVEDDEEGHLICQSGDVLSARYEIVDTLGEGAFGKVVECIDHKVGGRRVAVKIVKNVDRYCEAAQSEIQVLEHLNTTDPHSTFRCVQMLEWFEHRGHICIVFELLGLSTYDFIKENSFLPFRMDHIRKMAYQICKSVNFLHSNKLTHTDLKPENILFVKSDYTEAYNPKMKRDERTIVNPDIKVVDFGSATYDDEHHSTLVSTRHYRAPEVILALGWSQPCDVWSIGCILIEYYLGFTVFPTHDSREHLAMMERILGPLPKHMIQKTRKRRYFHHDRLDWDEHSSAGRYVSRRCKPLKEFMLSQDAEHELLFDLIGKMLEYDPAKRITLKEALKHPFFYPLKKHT
T5 sequence (P11309 whole entry): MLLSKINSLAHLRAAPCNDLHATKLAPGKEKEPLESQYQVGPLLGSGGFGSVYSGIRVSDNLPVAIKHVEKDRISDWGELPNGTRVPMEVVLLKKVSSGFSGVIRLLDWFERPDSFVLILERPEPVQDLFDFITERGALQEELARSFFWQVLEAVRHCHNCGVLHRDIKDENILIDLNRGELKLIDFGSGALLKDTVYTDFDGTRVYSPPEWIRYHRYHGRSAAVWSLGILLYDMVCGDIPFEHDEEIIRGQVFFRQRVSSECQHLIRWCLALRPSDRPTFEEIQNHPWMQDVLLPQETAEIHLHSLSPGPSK
Chain of CDK9/CyclinT (P50750 whole entry): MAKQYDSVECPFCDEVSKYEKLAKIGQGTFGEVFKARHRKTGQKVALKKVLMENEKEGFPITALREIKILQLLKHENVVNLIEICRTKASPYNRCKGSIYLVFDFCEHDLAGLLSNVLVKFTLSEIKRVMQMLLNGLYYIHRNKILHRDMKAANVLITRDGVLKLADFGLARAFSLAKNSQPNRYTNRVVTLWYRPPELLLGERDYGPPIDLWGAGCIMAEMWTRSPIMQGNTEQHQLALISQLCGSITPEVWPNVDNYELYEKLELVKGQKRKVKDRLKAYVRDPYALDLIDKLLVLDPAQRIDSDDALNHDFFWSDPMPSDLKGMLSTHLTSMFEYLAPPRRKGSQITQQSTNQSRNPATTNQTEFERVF
Chain of CDK9/CyclinT (O60563 whole entry partner): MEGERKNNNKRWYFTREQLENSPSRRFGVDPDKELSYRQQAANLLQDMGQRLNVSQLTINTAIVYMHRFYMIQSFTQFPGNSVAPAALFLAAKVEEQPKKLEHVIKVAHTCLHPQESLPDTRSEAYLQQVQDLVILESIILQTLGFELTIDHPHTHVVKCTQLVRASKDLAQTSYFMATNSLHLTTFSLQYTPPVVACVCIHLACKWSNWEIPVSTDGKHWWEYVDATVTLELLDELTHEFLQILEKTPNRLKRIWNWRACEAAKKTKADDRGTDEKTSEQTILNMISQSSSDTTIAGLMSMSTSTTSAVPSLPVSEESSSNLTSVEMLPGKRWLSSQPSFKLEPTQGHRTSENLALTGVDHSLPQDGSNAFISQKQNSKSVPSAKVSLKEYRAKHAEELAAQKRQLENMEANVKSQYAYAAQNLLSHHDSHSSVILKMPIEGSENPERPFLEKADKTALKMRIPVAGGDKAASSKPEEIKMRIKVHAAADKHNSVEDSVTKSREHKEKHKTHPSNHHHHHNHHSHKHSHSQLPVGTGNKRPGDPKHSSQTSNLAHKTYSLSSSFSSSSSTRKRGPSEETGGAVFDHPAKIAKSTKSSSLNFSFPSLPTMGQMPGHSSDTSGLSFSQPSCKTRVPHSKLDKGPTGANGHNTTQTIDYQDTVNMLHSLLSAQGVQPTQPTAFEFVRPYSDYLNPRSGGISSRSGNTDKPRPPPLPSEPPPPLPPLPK
T6 sequence (Q96GD4 whole entry): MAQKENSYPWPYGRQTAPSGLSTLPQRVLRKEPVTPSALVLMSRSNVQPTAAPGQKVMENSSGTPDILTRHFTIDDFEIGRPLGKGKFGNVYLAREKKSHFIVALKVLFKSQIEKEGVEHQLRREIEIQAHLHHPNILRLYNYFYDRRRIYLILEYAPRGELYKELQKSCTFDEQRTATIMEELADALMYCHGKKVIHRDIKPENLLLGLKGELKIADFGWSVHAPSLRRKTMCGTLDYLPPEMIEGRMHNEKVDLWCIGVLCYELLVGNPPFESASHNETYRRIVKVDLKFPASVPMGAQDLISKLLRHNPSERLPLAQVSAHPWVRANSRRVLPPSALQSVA
T3 sequence (Q00535 whole entry): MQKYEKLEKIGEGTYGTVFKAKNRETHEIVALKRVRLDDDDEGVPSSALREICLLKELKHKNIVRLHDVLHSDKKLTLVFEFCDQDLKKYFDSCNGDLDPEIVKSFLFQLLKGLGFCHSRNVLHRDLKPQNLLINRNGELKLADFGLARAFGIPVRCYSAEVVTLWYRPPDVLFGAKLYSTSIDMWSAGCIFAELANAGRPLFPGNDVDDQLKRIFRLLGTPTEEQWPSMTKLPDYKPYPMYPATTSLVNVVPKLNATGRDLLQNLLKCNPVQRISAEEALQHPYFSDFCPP
T3 sequence (Q15078 99-307 partner limits assumed): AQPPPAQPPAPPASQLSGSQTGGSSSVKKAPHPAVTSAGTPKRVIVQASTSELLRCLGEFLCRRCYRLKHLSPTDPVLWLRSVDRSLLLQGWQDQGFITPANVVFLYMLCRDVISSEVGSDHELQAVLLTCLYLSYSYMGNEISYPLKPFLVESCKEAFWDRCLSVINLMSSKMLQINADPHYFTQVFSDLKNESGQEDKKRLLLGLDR

Row | Compound | melting point [°C] | IC50 (GSK3 α/β) [µM] | IC50 (CLK1) [µM] | IC50 (CDK2/CyclinA) [µM] | IC50 (CK1δ/ε) [µM] | IC50 (HASPIN) [µM] | IC50 (CDK5/p25) [µM] | IC50 (CDK9/CyclinT) [µM] | IC50 (DYRK1A) [µM] | IC50 (PIM1) [µM] | IC50 (AURKB) [µM] | IC50 (MOLT-4; [2]) [µM] | IC50 (HEp-2; [3]) [µM] | IC50 (NCI-H292; [4]) [µM] | IC50 (MCF-7; [5]) [µM] | IC50 (HT-29; [6]) [µM] | IC50 (HL-60; Homo sapiens, HL-60) [µM] | IC50 (K562; [7]) [µM] | IC50 ([1]; Homo sapiens, PBMC) [µM] | also measured
1 | NC(=O)NN=Cc1ccc(Br)cc1 [Compound 3d, 4-Bromobenzaldehyde Semicarbazone] | 237 to 239 | > 10 | > 10 | > 10 | > 10 | > 10 | > 10 | > 10 | > 10 | > 10 | > 10 | 37.2 ± 0.84 | 23.1 ± 0.8 | > 100 | 33.5 ± 0.75 | > 100 | 16.9 ± 1.1 | 25.2 ± 2.43 | 46.3 ± 0.97 | –
2 | NC(=O)N/N=C/c1ccc([N+](=O)[O-])o1 [Compound 3m, 5-Nitro-2-furfuraldehyde Semicarbazone] | – | > 10 | – | – | – | > 10 | > 10 | > 10 | – | > 10 | – | – | – | 31.9 ± 0.07 | 8.56 ± 0.01 | 28.4 ± 8.56 | 24.33 ± 0.16 | – | > 100 | –
3 | NC(=O)NN=Cc1ccncc1 [Compound 3i, 4-Pyridinecarboxaldehyde Semicarbazone] | 225 to 226 | – | – | – | – | – | – | – | – | – | – | > 100 | > 100 | > 100 | > 100 | > 100 | > 100 | > 100 | > 100 | –
4 | NC(=O)NN=Cc1cccs1 [Compound 3k, 2-Thiophenecarboxaldehyde Semicarbazone] | 227 to 230 | – | – | – | – | – | – | – | – | – | – | > 100 | > 100 | > 100 | > 100 | > 100 | > 100 | > 100 | > 100 | –
5 | NC(=O)NN=Cc1ccc(Cl)cc1 [Compound 3e, 4-Chlorobenzaldehyde Semicarbazone] | 235 to 236 | > 10 | > 10 | > 10 | > 10 | > 10 | > 10 | > 10 | > 10 | > 10 | > 10 | > 100 | 22.3 ± 0.4 | > 100 | 33.9 ± 0.8 | > 100 | > 100 | 58.7 ± 0.97 | > 100 | –
6 | 2,6-Pyridinedicarboxaldehyde Semicarbazone [Compound 3j] | – | – | – | – | – | – | – | – | – | – | – | – | – | – | – | – | – | – | – | IC50 (MOLT-4; 72 h of incubation): > 100 µM; IC50 (HEp-2; 72 h of incubation): > 100 µM; IC50 (NCI-H292; 72 h of incubation): > 100 µM; IC50 (MCF-7; 72 h of incubation): > 100 µM; IC50 (HT-29; 72 h of incubation): > 100 µM; IC50 (HL-60): > 100 µM; IC50 (K562; 72 h of incubation): > 100 µM; IC50 [1]: > 100 µM

Now from value to compound, other results behind:

Row | melting point [°C] | IC50 (GSK3 α/β) [µM] | IC50 (CLK1) [µM] | IC50 (CDK2/CyclinA) [µM] | IC50 (CK1δ/ε) [µM] | IC50 (HASPIN) [µM] | IC50 (CDK5/p25) [µM] | IC50 (CDK9/CyclinT) [µM] | IC50 (DYRK1A) [µM] | IC50 (PIM1) [µM] | IC50 (AURKB) [µM] | Compound | IC50 (MOLT-4; [2]) [µM] | IC50 (HEp-2; [3]) [µM] | IC50 (NCI-H292; [4]) [µM] | IC50 (MCF-7; [5]) [µM] | IC50 (HT-29; [6]) [µM] | IC50 (HL-60; Homo sapiens, HL-60) [µM] | IC50 (K562; [7]) [µM] | IC50 ([1]; Homo sapiens, PBMC) [µM] | also measured
7 | 210 to 212 | – | – | – | – | – | – | – | – | – | – | COc1ccc(C=NNC(N)=O)cc1 [Compound 3a, 4-Methoxybenzaldehyde Semicarbazone] | > 100 | > 100 | > 100 | > 100 | > 100 | > 100 | > 100 | > 100 | –
8 | 237 to 239 | – | – | – | – | – | – | – | – | – | – | COc1cc(C=NNC(N)=O)ccc1O [Compound 3b, 4-Hydroxy-3-methoxybenzaldehyde Semicarbazone] | > 100 | > 100 | > 100 | > 100 | > 100 | > 100 | > 100 | > 100 | –
9 | 246 to 247 | > 10 | > 10 | > 10 | > 10 | > 10 | > 10 | > 10 | > 10 | > 10 | > 10 | NC(=O)NN=Cc1ccc(Cl)c(Cl)c1 [Compound 3f, 3,4-Dichlorobenzaldehyde Semicarbazone] | > 100 | 8.61 ± 0.35 | > 100 | 23.3 ± 1.55 | > 100 | 14.2 ± 1.41 | 26.3 ± 1.86 | > 100 | –
